Legend:
[1] = Hydrolysis in humid air (81% humidity chamber); format: physicochemical
From the text: A. The compound subjected to humid air was a typical Peterson compound, phenylsulfonylmethyltrimethylstannane, [formula] A 5 gal. jar was set on its side on a wooden support and contained a wire mesh screen to support samples in test over a mixture of 152 g of (NH4)2 SO4 in 168 g of H2 O. An excess of (NH4)2 SO4 in contact with a saturated aqueous solution of (NH4)2 SO4 gives 81% humidity in a closed space.^1 The following samples of this Peterson compound were weighted into 40 mm O.D. petri dishes (minus cover) of 8 mm depth and the dishes placed into the humidity chamber, and the chamber was then closed: No. 15 dish 0.2186 g; No. 34 dish 0.2006 g. Before the samples were removed from the balance, a solid crust began forming on the surface of the liquid and, inside of ten minutes, covered all of the liquid surface. An odor of a volatile trimethyltin compound was noted. When the samples were placed in the humidity chamber, the samples coated almost all of the surface area inside the dishes. The 5 gal. jar was set on the bench under normal laboratory lighting. The initial temperature inside the chamber was 24.5° C. Over 4 days, the temperature ranged from the initial temperature as a high to a low temperature of 18° C. The No. 15 sample was removed after 4 days. Under the surface crust, there was an oily solid. The sample was scraped with a spatula into a 2 dram sample vial. The oily solid remaining was washed into the vial with chloroform (about 0.5 to 1 ml). The chloroform was removed under a stream of nitrogen. The No. 34 sample was removed from the chamber after 7 days. The sample was completely solid and was scraped into a vial.
at 307 Hz and a broadened singlet flanked by satellites at 36.5 Hz for (CH3)3 Sn and a broadened singlet at 191 Hz for the OH.
B. A corresponding compound, closely related to the compounds of this invention, phenylsulfonylethyltrimethylstannane, [formula] was subjected to similar humidity conditions in the same equipment. […]

[2] = Thermal stability on distillation; format: physicochemical; settings: at the temperature required to distill the starting sulfone
Protocol: The pot residue, a black brittle glass when cooled, weighed 16.2 g. The cuts were analyzed by (glpc) gas-liquid phase chromatography using a 6 feet × 1/8 inch column packed with 10% of silicone gum rubber on silanized diatomaceous earth at a column temperature of 260° C. […] There also was a more volatile component which increased in amount in each successive cut. The latter observation accompanied by a gradual loss in vacuum is usually associated with some thermal decomposition. Cuts No. 2 and No. 3 were combined for a second distillation using a vacuum jacketed vigreaux column. One cut was obtained, b.p. 43°-125° C. […] The vigreaux column was replaced by a short-path head and a third distillation was run on the pot residue. The following cuts were taken:
A sample of Cut No. 1 was analyzed by nuclear magnetic resonance spectroscopy (NMR). […] In summary, the product could only be obtained as a mixture with the starting sulfone despite three distillation attempts to separate the mixture.

[3] = system: corn leaf aphids Rhopalosiphum maidis (Fitch); experiment: Aphid Contact Test; format: in vivo; settings: 1000 PPM spray, barley, 5 days
Protocol: Test formulations were prepared for spraying at 1000 ppm (parts per million) concentration by dissolving them in a small amount of acetone and adding a suitable wetting agent. Typically, […] of organotin compound was dissolved (or suspended) in 10 ml of acetone, 2 drops of Triton-X100 wetting agent (octylphenoxy polyethoxy ethanol with 9-10 mole percent of polyethylene oxide) were added and this was suspended in 300 ml of water make a 6000 ppm suspension. An aliquot was then further diluted with distilled water to 1000 ppm concentration of organotin compound.
Eight to ten day old barley seedlings, grown ten plants each in a 12 oz. cup, were infested with corn leaf aphids Rhopalosiphum maidis (Fitch), two days prior to treatment. Two pots were treated with each formulation by spraying with a spray atomizer while the plants were rotating on a turntable. Following treatment, the plants were held for 5 days in the greenhouse. At the end of this period, the percent control of the aphids was estimated based on the reduction of the population density as compared to untreated plants used as controls.

[4] = system: adult mites, urticae Koch; experiment: Mite One-Day Residual Test (Example 8); format: in vivo; settings: 500 PPM, cotton, six days after infestation; 8640 min
Protocol: Test compounds were prepared as in B, the Aphid Contact Test, above but were further diluted to 500 ppm with water.
Cotton, in the second primary leaf stage grown in twelve ounce cups under greenhouse conditions at 70°-75° F., was used in the test.
one plant (two primary leaves) in one pot was used for each replicate; two replicates were used for each concentration of organotin compound tested.
The plants were sprayed with the dispersions using a small spray atomizer to throughly drench the foliage.
One day following treatment, a circle of tree tanglefoot was placed on the upper surface of the treated leaves and adult mites, urticae Koch, were transferred into this confinement.
Six days following infestation with mites, the plants were examined for adult live mites remaining on the leaves. On an estimation basis in comparison with the number of living mites on the control plants, the percent control was determined.

[5] = system: cotton boll weevils, Anthonomous grandis Boheman; experiment: Cotton Boll Weevil Test; format: in vivo; settings: for % Control Cotton Boll Weevil: 1000 PPM, cotton seedlings, five days, Abbott-corrected, 7200 min; for Boll Weevil % Feeding Reduced on Cotton: 1000 ppm, visual comparison of feeding damage
Protocol: Formulations were prepared at 1000 ppm as in B, the Aphid Contact Test, above. Cotton seedlings 12 to 14 days old grown in 12 oz cups were used. Two pots were treated with each formulation by spraying with a spray atomizer while rotating the pots on a turntable. Five adult cotton boll weevils, Anthonomous grandis Boheman, were placed in each pot following treatment and were caged by covering the pots with an inverted 16 oz styrofoam cup with small perforations punched in the bottom. The surviving weevils were counted after five days in the greenhouse to determine the percent control, corrected for any natural mortality in the control plants by Abbott's formula. The percent reduction in feeding was estimated by visual comparison of the feeding damage to the treated plants with the control (untreated) plants.
(§1) F. Abbott's Formula: [formula]

[6] = system: yellow fever mosquito, Aedes aegypti (Linnaeus); format: in vivo; settings: 1 PPM, 72 hours
Protocol: Formulations were prepared by dissolving 30 mg of organotin compound of the invention in 10 ml of acetone. This solution was then diluted to 1 ppm with water. Two 25-ml aliquots were placed in test tubes to which were added 10 to 25 fourth instar larvae of the yellow fever mosquito, Aedes aegypti (Linnaeus). The tubes were held in darkness for 72 hours. At the end of this period the percent control was determined.

[7] = system: tobacco bud worm, Heliothis virescens (Fabricius); experiment: Tobacco Bud Worm Diet Test; format: in vivo; settings: 1000 PPM, one week, Abbott-adjusted, 10080 min
Protocol: Test formulations were prepared at 1000 ppm as in B, the Aphid Contact Test, above. Two-tenths ml of the diluted formulations was pipetted onto the surface of 5 grams of a synthetic diet mixture held in partially filled cells of a plastic jelly tray. Five cells were treated with each chemical dilution. The diet mixture was a modified Vanderzant diet consisting of wheat germ, soy flour, agar, sugar, salts, vitamins, preservatives and water. The jelly trays had fifty cavities per sheet, each cavity being approximately 2.5 × 4.0 × 1.5 cm.
Following treatment, a third or early fourth instar larva of the tobacco bud worm, Heliothis virescens (Fabricius), was placed in each cell. The trays were then covered with a plastic film plus a sheet of rigid plastic and were held in an incubator at 80° F.
At the end of one week, the trays were examined and the percent control was determined, adjusted for any natural mortality in the controls by Abbott's formula. The trays were held an additional week and any abnormalities in the development of the survivors was noted.
as §1

[8] = cited from earlier work
[9] = system: tobacco bud worm, Heliothis virescens (Fabricius); experiment: 3-day tobacco bud worm test on cotton, comparative (Table VII); format: in vivo; settings: 6 days after spray
Protocol: Tesst formulations were prepared by dissolving 50 mg of organotin compound of the invention in one ml of acetone, adding one drop of Emulfor 719, a commercial surface-active dispersing agent (polyoxyethylated vegetable oil) and suspending in 50 m1 of water for a concentration of 1000 ppm (parts per million). Aliquots of the solution were further diluted with distilled water to concentrations of 100, 20 and 5 ppm.
Cotton seedlings two weeks old were used. These were grown in 12 ounce cups with two plants in each cup. The diluted formulations were applied to the seedling plants with a spray atomizer and allowed to dry. Three cups were treated with each diluted formulation. A third instar larvae of the tobacco bud worm, Heliothis virescens (Fabricius). was placed in each cup and confined by inverting a perforated 16 oz. styrofoam cup over the top. Percent control of the worms and amount of feeding damage to the plants was determined after two weeks in the greenhouse.
(§2) The 3-day tobacco bud worm test on cotton differed as follows from that set forth in Example 10. The plants used were 3 weeks old, and were covered with cheesecloth during the test. Six replicates were used for each test compound, with 1 worm per plant. The plants were infested with larva 3 days after the spray application and the recorded observations were made 6 days after the spray application.

[10] = system: adult mites, Tetranychus urticae koch; experiment: Mite one-day residual test, comparative (Table VII); format: in vivo; settings: 3 days after loading mites, 85° F.
Protocol: Cotton in the second primary leaf stage, grown in twelve ounce cups under greenhouse conditions at 70°-75° F. was used in this test. One plant (two primary leaves) in one pot was used for each replicate and two replicates were used for each concentration of tin compound tested. Test formulations were prepared by dissolving 50 mg of tin compound in one ml of acetone, adding one drop of Emulfor 719, a commercial surface-activedispersing agent (polyoxyethylated vegetable oil) and suspended in 50 ml of water for concentration of 1000 ppm (parts per million). Aliquots of this solution were further diluted with distilled water to concentrations of 100, 20 and 5 ppm. The plants were sprayed with the formulations using a small spray atomizer to thoroughly drench the foliage. One day following treatment, a circle of tree tanglefoot was placed on the upper surfaces of the treated leaves and adult mites, Tetranychus urticae koch, were transferred into this confinement. Counts of these mites were made immediately following transfer and again six days later.
The mite one-day residual test differed as follows from that set forth in Example 9. The plants were held in a growth chamber maintained at 85° F., and were exposed to high intensity fluorescent lights for 14 hour days. The recorded observations were made 3 days after loading the mites.
as §2

Compound	% Control Aphids [3] [%]	% Control Mite One-Day Residual [4] [%]	% Control Cotton Boll Weevil [5] [%]	Boll Weevil % Feeding Reduced on Cotton [5] [%]	% Control Mosquito Larvae [6] [%]	% Control Tobacco Bud Worm [7] [%]	further results
[CH3][Sn]([CH3])([CH3])[CH2]S(=O)(=O)c1ccccc1 [trimethylphenylsulfonylmethylstannane, phenylsulfonylmethyltrimethylstannane]	–	–	–	–	–	–	hydrolysis in humid air (NMR) ([1]; 81% humidity, 18-24.5° C., 4 days and 7 days): no unreacted starting Peterson compound
CC(C)(C)c1ccc(S(=O)(=O)[CH2][Sn]([CH3])([CH3])[CH3])cc1 [4-t-butylphenylsulfonylmethyltrimethylstannane]	–	–	–	–	–	–	thermal instability [2]: thermal instability of the product at the temperature required to distill the starting sulfone
[CH3][Sn]([CH3])([CH3])[CH2]CS(=O)(=O)c1ccccc1 [trimethylphenylsulfonylethylstannane, phenylsulfonylethyltrimethylstannane]	–	–	–	–	–	–	hydrolysis in humid air (infrared, NMR) ([1]; 81% humidity, 27° C./room temperature, 4 days and 2 weeks): not subject to hydrolysis under the stated conditions
Trimethyltin p-toluenesulfinate	98	100	100	100	0	100	–
2-Thioacetoxyethyltri-n-butyltin	95	80	40	90	55	20	–
CCC[CH2][Sn]([CH2]CCC)([CH2]CCC)[CH2]S(=O)(=O)c1ccccc1 [[(Phenylsulfonyl)methyl]tributyltin]	–	–	–	–	–	–	reactivity toward carbon dioxide and oxygen ([8]; room temperature): unreactive toward carbon dioxide and oxygen at room temperature; decomposition to phenyl methyl sulfone and tributyltin oxide on exposure of a thin layer to air ([8]; within four days, 5760 min): ca. 50%
2-(p-dodecylphenylsulfonyl)ethyltrimethylstannane [Compound 11]	90	100	100	50	100	100	–
[CH3][Sn]([CH3])([CH3])[OH] [trimethyltin hydroxide]	–	–	–	–	–	–	Tobacco Bud Worm % Control ([9]; 0.15 millimoles/liter): 16%; Tobacco Bud Worm % Feeding Reduced ([9]; 0.15 millimoles/liter): 50%; Tobacco Bud Worm % Control ([9]; 0.3 millimoles/liter): 16%; Tobacco Bud Worm % Feeding Reduced ([9]; 0.3 millimoles/liter): 69%; Tobacco Bud Worm % Control ([9]; 0.6 millimoles/liter): 66%; Tobacco Bud Worm % Feeding Reduced ([9]; 0.6 millimoles/liter): 81%; Mite One-Day Residual % Control ([10]; 0.15 millimoles/liter): 7%; Mite One-Day Residual % Control ([10]; 0.3 millimoles/liter): 34%; Mite One-Day Residual % Control ([10]; 0.6 millimoles/liter): 9%
C[CH](S(=O)(=O)c1ccc(C(C)(C)C)cc1)[Sn]([CH3])([CH3])[CH3] (stereo not drawn) [1-[p-t-butylphenylsulfonyl]ethyltrimethylstannane]	–	–	–	–	–	–	hydrolysis deficiencies ([1]; comparison with the Peterson compound): suffers from the same hydrolysis deficiencies as does the Peterson compound

Source: patent publication US3976672A, “(Hydrocarbylphenylsulfonyl)alkyltrimethylstannanes” (priority 1975, dated 1976)
